Test results published in US20230243002A1, “ASSAY OT DETECT VIRUS” (priority 2020, published 2023).

Assays:
luciferase = luciferase (Photinus pyralis, UniProt P08659); test: Background LU of reaction with only luciferase and no viral RNA, dATP versus dATPαS; format: biochemical
[1] = system: SARS-CoV-2, USA-WA1/2020 RNA; test: ID-Oligos assay signal output with dC/T/G only or supplemented with dATPαS; format: biochemical; details: supplemented with 0.1 mM dATPαS versus only dT/G/C
[2] = system: luminescence output of luciferase; test: Compounds and reagents that inhibit or interfere with the ID-Oligo luminescence methods; format: biochemical
Excerpt: Various compounds and components may interfere with the methods described herein. […] Thus, in some embodiments, the sample is free of compounds and components that inhibit the luminescence output of luciferase. Accordingly, the sample may be free of sodium-azide, sodium-citrate, heparin, EDTA, EGTA, proteases, phosphates, 2,2′-azino-di-(3-ethylbenzothiazoline)-6-sulfonic acid (ABTS), and/or butylated hydroxytoluene (BHT). In various related aspects, the present application also relates to devices and kits for performing the methods described herein. Such kits contain monitors, reagents and procedures that can be utilized in a clinical or research setting or adapted for either the field laboratory or on-site use. In particular, kits comprising the disclosed reagents used in practicing the methods described herein include any of a number of means for detecting the captured target nucleic acid molecule and measuring the bioluminescent signal produced subsequent to target capture, along with appropriate instructions, are contemplated. Suitable kits comprise reagents sufficient for performing an assay, or one or more independent steps of an assay, to detect a target nucleic acid molecule, as described herein above.

[3] = system: coupled ATPS-luciferase reaction; details: 0.04% Na-Azide, LU measured for 200 seconds

Chain of luciferase (P08659 whole entry): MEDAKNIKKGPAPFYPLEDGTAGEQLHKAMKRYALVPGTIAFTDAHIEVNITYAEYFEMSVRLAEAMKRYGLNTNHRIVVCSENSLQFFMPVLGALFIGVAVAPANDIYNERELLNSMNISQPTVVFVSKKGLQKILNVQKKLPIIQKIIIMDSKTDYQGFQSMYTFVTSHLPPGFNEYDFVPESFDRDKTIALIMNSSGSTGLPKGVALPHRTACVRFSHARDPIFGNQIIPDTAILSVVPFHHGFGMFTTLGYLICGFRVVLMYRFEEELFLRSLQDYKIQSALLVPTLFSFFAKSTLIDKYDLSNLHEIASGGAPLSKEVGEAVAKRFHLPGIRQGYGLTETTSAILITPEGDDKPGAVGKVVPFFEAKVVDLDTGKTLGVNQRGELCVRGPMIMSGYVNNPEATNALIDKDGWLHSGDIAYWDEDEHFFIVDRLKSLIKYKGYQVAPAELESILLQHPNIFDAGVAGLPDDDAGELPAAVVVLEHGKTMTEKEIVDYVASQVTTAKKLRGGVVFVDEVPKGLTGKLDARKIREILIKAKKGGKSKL

Molecule	inhibit or interfere with the methods described herein [2]	further results
Nc1ncnc2c1ncn2[C@H]1C[C@H](O)[C@@H](COP(O)(=S)OP(=O)(O)OP(=O)(O)O)O1 (some centres unmarked) [dATPαS]	–	improved signal-to-noise ratio (luciferase): ~2 orders of magnitude; LU background (luciferase; 0.1 mM/1 mM, luciferase only, no viral RNA): reduction; reaction slope [1]: Higher slope values
O=C(O)CN(CCOCCOCCN(CC(=O)O)CC(=O)O)CC(=O)O [EGTA]	inhibit or interfere	–
Cc1cc(C(C)(C)C)c(O)c(C(C)(C)C)c1 [BHT, butylated hydroxytoluene]	inhibit or interfere	–
[N-]=[N+]=[N-].[Na+] [Na-azide]	inhibit or interfere	effect on the luminescence output of the coupled ATPS-luciferase reaction [3]: inhibitory effect
O=C(O)CN(CCN(CC(=O)O)CC(=O)O)CC(=O)O [EDTA]	inhibit or interfere	–
CCn1c(=NN=c2sc3cc(S(=O)(=O)O)ccc3n2CC)sc2cc(S(=O)(=O)O)ccc21 [ABTS, 2,2′-azino-di-(3-ethylbenzothiazoline)-6-sulfonic acid]	inhibit or interfere	–
heparin	inhibit or interfere	–
O=C([O-])CC(O)(CC(=O)[O-])C(=O)[O-].[Na+].[Na+].[Na+] [Na-citrate]	inhibit or interfere	–
